Laboratory results: patent publication US11246816B2, “Shampoo compositions comprising a chelant” (The Procter & Gamble Company, priority 2016, dated 2022)

What was measured:
[1] = log of formation constant of complex with copper; cited from earlier work
[2] = Log P, n-octanol/water partition coefficient; assay type: physicochemical
Text: The term log P is the n-octanol/water partition coefficients of the material.
The copper to be removed is inside the hair and the chelant needs to penetrate inside hair and form a strong copper-chelant complex. This copper-chelant complex needs to be water soluble and thus easily removed during the rinsing process. […] These are log P, the octanol/water partitioning coefficient, and the molecular weight of the chelant. Both are related to the ability of the chelant to penetrate into hair and also form a water soluble copper-chelant complex

[3] = Copper content of colored hair switches after repeated shampoo wash cycles (ICP-OES); settings: clarifying shampoo containing the chelant, 20 cycles, copper content of hair compared to same treatment with shampoo without chelant
Procedure: The copper removing performance of the shampoo composition is determined by treating hair with clarifying shampoo containing the corresponding chelant for 20 cycles and comparing the copper content of the hair compared to the same treatment using shampoo without the chelant.
All testing are performed on colored hair switches (see Method of Measurement of Copper on Hair below) weighing approximately 4.0 grams and having a length of approximately 6 inches. The hair switches are commercially available from IHIP (International Hair Importers). Three hair switches per shampoo composition are used. An amount of […] of shampoo is spread via a syringe onto separate hair switch. That is, the dosage is 0.10 g of shampoo per g of hair. Each application consists of adding shampoo to the hair, milking for 30 seconds followed by rinsing for 30 seconds. Shampoo is then reapplied (0.1 g/g), milked for 30 seconds and rinsed for 30 seconds. Excess water is squeezed from the hair switches and left to air dry or treated with a rinse-off conditioner and/or a leave-on treatment composition. This protocol is repeated for a number of times/cycles (as indicated in the tables below, which describe the details of hair treatments).
The following test method is used to assess the ability of the compositions and regimens to remove copper from the hair and to inhibit copper deposition onto the hair.
Hair switches are colored once with an oxidative hair colorant. An extra blonde shade is used for the testing. The hair switches are washed for 10 or 20 repeat wash cycles in tap water containing 7 grains per gallon water hardness (Ca/Mg) and 0.06 μg/g copper ions. Each wash cycle consists of two applications of 0.1 g/g a shampoo to the hair switches. Each application consists of adding shampoo to the hair, milking for 30 secs followed by rinsing for 30 secs. Shampoo is then reapplied 0.1 g/g, milked for 30 secs, rinsed for 30 secs and then dried in a heat box (60° C.) until dry.
Samples of 100 mg of hair are digested overnight with 2 ml of high purity concentrated nitric acid. The digestive mixture also contains 150 μL of 100 μg/g Yttrium internal standard (Inorganic Ventures, Christianburg, Va., USA). Following digestion, samples are heated to 70-80° C. for one hour, cooled to room temperature and diluted to 15 mL with deionized water. Copper content of the hair switches is determined by inductively coupled plasma atomic spectroscopy (ICP-OES)). For each leg, 3 different samples are analyzed.
In order to minimize the variability of the resulting copper content on hair that is related to (a) lot-to-lot viariability due to hair switches and (b) day-to-day variability of the water used during shampoo and conditioner treatments, a single lot of hair switches is used for each experimental series and a separate control experiment/treatment is run for each experimental series (see below).

SMILES	Log KML Cu [1]	logP [2]	Copper Removing Performance from Shampoo [3]
Nc1cc(C(=O)O)nc(C(=O)O)c1 [4-Aminopyridine-2,6-dicarboxylic acid, 4-aminopyridine-2,6-dicarboxylic acid]	11.4	0	–
Cc1cccc(C(=O)O)n1 [6-Methyl Picolinic Acid, 6-methylpyridine-2-carboxylic acid]	7.1	1	35%
O=C(O)c1cc(O)cc(C(=O)O)n1 [Chelidamic Acid, chelidamic acid]	12.2	0.6	35%
O=C(O)c1cccc(C(=O)O)n1 [Dipicolinic Acid, dipicolinic acid]	9.1	0.8	40%
CCCCc1ccc(C(=O)O)nc1 [Fusaric Acid, fusaric acid]	–	2.6	–
O=C(O)c1ccccn1 [Picolinic Acid, picolinic acid]	7.9	0.7	50%
O=C(O)c1ccc2ccccc2n1 [Quinaldic Acid, quinaldic acid]	5.9	2.1	35%
O=C(O)c1cccnc1C(=O)O [Quinolinic Acid, quinolinic acid]	–	0.4	50%
